Read-outs that look alike come from different tables or passages of the source.
Assay: CelltiterGlo viability cell assay
Type: cell-based
Conditions: human
Procedure, shortened: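 Luminescent ATP-based viability (CelltiterGlo) was measured after 3 or 6 days of treatment at increasing concentrations from 0.01 μM up to 30 μM, with values expressed relative to DMSO-treated cells.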

[1] = CAL851 breast cancer cells, CAL851, 3 day, read-out: viability Average
[2] = CAL851 breast cancer cells, CAL851, 3 day, read-out: viability Replicate 1
[3] = CAL851 breast cancer cells, CAL851, 3 day, read-out: viability Replicate 2
[4] = CAL851 breast cancer cells, CAL851, 3 day, read-out: viability Replicate 3
[5] = CAL851 breast cancer cells, CAL851, 6 day, read-out: viability Average
[6] = CAL851 breast cancer cells, CAL851, 6 day, read-out: viability Replicate 1
[7] = CAL851 breast cancer cells, CAL851, 6 day, read-out: viability Replicate 2
[8] = CAL851 breast cancer cells, CAL851, 6 day, read-out: viability Replicate 3
[9] = CAL851 cells, CAL851, 3 day, read-out: viability Replicate 1
[10] = CAL851 cells, CAL851, 3 day, read-out: viability Replicate 2
[11] = HCC1143 breast cancer cells, HCC1143, 3 day, read-out: viability Average
[12] = HCC1143 breast cancer cells, HCC1143, 3 day, read-out: viability Replicate 1
[13] = HCC1143 breast cancer cells, HCC1143, 3 day, read-out: viability Replicate 2
[14] = HCC1143 breast cancer cells, HCC1143, 3 day, read-out: viability Replicate 3

Compound: COc1cc(OC)cc(-c2noc(N3CCN(C)C4(CCN(c5ccnc(C)c5)CC4)C3)n2)c1 [MRK-740]
- viability at 3 day, 0.01 µM [1]: 95.7%
- viability at 3 day, 0.01 µM [2]: 91.6%
- viability at 3 day, 0.01 µM [3]: 94.6%
- viability at 3 day, 0.01 µM [4]: 101%
- viability at 3 day, 0.03 µM [1]: 94.4%
- viability at 3 day, 0.03 µM [2]: 93.2%
- viability at 3 day, 0.03 µM [3]: 92.2%
- viability at 3 day, 0.03 µM [4]: 97.9%
- viability at 3 day, 0.3 µM [1]: 98.9%
- viability at 3 day, 0.3 µM [4]: 104%
- viability at 3 day, 1 µM [1]: 98%
- viability at 3 day, 1 µM [2]: 88.2%
- viability at 3 day, 1 µM [3]: 93.7%
- viability at 3 day, 1 µM [4]: 112%
- viability at 3 day, 3 µM [1]: 88%
- viability at 3 day, 3 µM [2]: 88.9%
- viability at 3 day, 3 µM [3]: 78.6%
- viability at 3 day, 3 µM [4]: 96.5%
- viability at 3 day, 9.5 µM [1]: 72%
- viability at 3 day, 9.5 µM [2]: 69.7%
- viability at 3 day, 9.5 µM [3]: 68.9%
- viability at 3 day, 9.5 µM [4]: 77.4%
- viability at 3 day, 30 µM [1]: 21.2%
- viability at 3 day, 30 µM [2]: 18.4%
- viability at 3 day, 30 µM [3]: 24.5%
- viability at 3 day, 30 µM [4]: 20.7%
- viability at 6 day, 0.01 µM [5]: 113%
- viability at 6 day, 0.01 µM [6]: 109%
- viability at 6 day, 0.01 µM [7]: 118%
- viability at 6 day, 0.01 µM [8]: 113%
- viability at 6 day, 0.03 µM [5]: 114%
- viability at 6 day, 0.03 µM [6]: 103%
- viability at 6 day, 0.03 µM [7]: 114%
- viability at 6 day, 0.03 µM [8]: 126%
- viability at 6 day, 0.1 µM [5]: 129%
- viability at 6 day, 0.1 µM [6]: 116%
- viability at 6 day, 0.1 µM [7]: 126%
- viability at 6 day, 0.1 µM [8]: 145%
- viability at 6 day, 0.3 µM [5]: 118%
- viability at 6 day, 0.3 µM [6]: 121%
- viability at 6 day, 0.3 µM [7]: 117%
- viability at 6 day, 0.3 µM [8]: 115%
- viability at 6 day, 1 µM [5]: 117%
- viability at 6 day, 1 µM [6]: 109%
- viability at 6 day, 1 µM [7]: 108%
- viability at 6 day, 1 µM [8]: 134%
- viability at 6 day, 3 µM [5]: 100%
- viability at 6 day, 3 µM [6]: 93.2%
- viability at 6 day, 3 µM [7]: 104%
- viability at 6 day, 3 µM [8]: 104%
- viability at 6 day, 9.5 µM [5]: 73.1%
- viability at 6 day, 9.5 µM [6]: 59.9%
- viability at 6 day, 9.5 µM [7]: 75.6%
- viability at 6 day, 9.5 µM [8]: 83.9%
- viability at 6 day, 30 µM [5]: 14.9%
- viability at 6 day, 30 µM [6]: 22.8%
- viability at 6 day, 30 µM [7]: 11.9%
- viability at 6 day, 30 µM [8]: 10%
- viability at 3 day, 0.1 µM (CAL851 cells, CAL851, 3 day, read-out: viability Average): 99.9%
- viability at 3 day, 0.1 µM [9]: 97.5%
- viability at 3 day, 0.1 µM [10]: 91.8%
- viability at 3 day, 0.1 µM (CAL851 cells, CAL851, 3 day, read-out: viability Replicate 3): 111%
- viability at 3 day, 0.3 µM [9]: 94.7%
- viability at 3 day, 0.3 µM [10]: 97.8%
- viability at 3 day, 0.01 µM [11]: 96.2%
- viability at 3 day, 0.01 µM [12]: 100%
- viability at 3 day, 0.01 µM [13]: 94.8%
- viability at 3 day, 0.01 µM [14]: 93.8%
- viability at 3 day, 0.03 µM [11]: 94.8%
- viability at 3 day, 0.03 µM [12]: 92.9%
- viability at 3 day, 0.03 µM [13]: 94.1%
- viability at 3 day, 0.03 µM [14]: 97.3%
- viability at 3 day, 0.3 µM [11]: 98.1%
- viability at 3 day, 0.3 µM [12]: 99.7%
- viability at 3 day, 0.3 µM [13]: 97.7%
- viability at 3 day, 0.3 µM [14]: 96.9%
- viability at 3 day, 1 µM [11]: 97.8%
- viability at 3 day, 1 µM [12]: 101%
- viability at 3 day, 1 µM [13]: 93.9%
- viability at 3 day, 1 µM [14]: 98.8%
- viability at 3 day, 3 µM [11]: 92.9%
- viability at 3 day, 3 µM [12]: 94.7%
- viability at 3 day, 3 µM [13]: 91%
- viability at 3 day, 3 µM [14]: 93%
- viability at 3 day, 9.5 µM [11]: 71.7%
- viability at 3 day, 9.5 µM [12]: 73.8%
- viability at 3 day, 9.5 µM [13]: 69.4%
- viability at 3 day, 9.5 µM [14]: 72%
- viability at 3 day, 30 µM [11]: 25.7%
- viability at 3 day, 30 µM [12]: 27.4%
- viability at 3 day, 30 µM [13]: 27.1%
- viability at 3 day, 30 µM [14]: 22.6%
- viability at 6 day, 0.03 µM (HCC1143 breast cancer cells, HCC1143, 6 day, read-out: viability Average): 101%
- viability at 6 day, 0.03 µM (HCC1143 breast cancer cells, HCC1143, 6 day, read-out: viability Replicate 1): 96.8%
- viability at 6 day, 0.03 µM (HCC1143 breast cancer cells, HCC1143, 6 day, read-out: viability Replicate 2): 101%

— paper PMC6917776, “Discovery of a chemical probe for PRDM9” (Nature Communications, 2019)
